Patent publication US12679837B2, “Aminopyrimidine compound as CDK2/4/6 triple inhibitor” (CISEN PHARMACEUTICAL CO., LTD, priority 2019, dated 2026)

Biological target: T1, CDK2/CyclinA2 (Homo sapiens, UniProt P24941)
T1 construct: purchased Promega
Assay: CDK2/CyclinA2 kinase activity test (ADP-Glo)
Assay type: biochemical
Details: 50 μM ATP, 25° C., 60 minutes; read-out: Enzyme activity data (IC50) CDK2/cyclinA
Description: Experimental materials: CDK2/CyclinA2 kinase detection kit was purchased from Promega. Nivo Multilabel Analyzer (PerkinElmer).
Experimental method: Kinase buffer dilution enzyme in the kit, substrate, adenosine triphosphate and inhibitor were used. The compounds to be tested were diluted 5-fold to the 8th concentration with a row gun, that is, from 50 μM to 0.65 nM, the concentration of DMSO was 5%, and a double-replicate well experiment was set up. 1 μL of each concentration gradient of inhibitor, 2 μL of CDK2/CyclinA2 enzyme (1.6 ng), and 2 μL of a mixture of substrate and ATP (50 μM of adenosine triphosphate, 0.1 μg/μL of substrate) were added to the microplate, and at this time, the final concentration gradient of compound was diluted from 10 μM to 0.13 nM. The reaction system was placed at 25° C. and reacted for 60 minutes. After the reaction was complete, 5 μL of ADP-Glo reagent was added to each well, and the reaction was continued at 25° C. for 40 minutes. At the end of the reaction, 10 μL of kinase detection reagent was added to each well. After the reaction was continued at 25° C. for 30 minutes, the chemiluminescence was read by a multi-label analyzer with an integration time of 0.5 seconds.
Using the equation (Sample−Min)/(Max−Min)×100% to convert the original data into inhibition rate, the IC50 value can be obtained by curve fitting with four parameters (obtained by the mode of log(inhibitor) vs. response—Variable slope in GraphPad Prism). Table 1 provides the enzymatic inhibitory activities of the compounds of the present invention on CDK2/CyclinA2, CDK2/CyclinE1, CDK4/CyclinD1, CDK6/CyclinD1, CDK9/CyclinT1.

IC50: 0.28 nM
SMILES: C[C@@]1(O)CCC[C@H]1N1C(=O)CCc2cnc(NC3CCN(S(C)(=O)=O)CC3)nc21 [Compound 1A]
